The values below are quoted from earlier work in patent US9931313B2, “Methods of treating proliferative disorders with malate or derivatives thereof” (Beth Israel Deaconess Medical Center, Inc., priority 2012, dated 2018).

SMILES strings stand for the structures.

This data set concerns K562 cell. Conditions: supplementation; Ren et al., PLoS One 5 (2010); cited from earlier work.

As to `O=C([O-])CC(O)C(=O)[O-].[Na+].[Na+]` (stereo not shown) [sodium malate], the K562 cell differentiation result is “failed to induce”.
